Data from ChEMBL document CHEMBL4229350, “Antimicrobial activity and self-assembly behavior of antimicrobial peptide chensinin-1b with lipophilic alkyl tails” (Eur J Med Chem, 2018).
In brackets after ≈: the same amount, converted by molar mass. Activity calls are given as the source filed them. The calls are words filed in the database; no cut-off is given here. Peptide text beside a SMILES is read from it. * marks the point of attachment. Lauroyl = CCCCCCCCCCCC(=O)*; Octanoyl = CCCCCCCC(=O)*

Legend:
Lipid bilayer [1] = assay: Induction of membrane permeabilization in calcein loaded LPS/PC/PG large unilamellar vesicles assessed as calcein leakage after 15 mins by fluorescence assay
Lipid bilayer [2] = assay: Induction of membrane permeabilization in calcein loaded PG/CL/PE large unilamellar vesicles assessed as calcein leakage at 6 uM after 15 mins by fluorescence assay relative to control
Lipid bilayer [3] = assay: Induction of membrane permeabilization in calcein loaded PG/CL large unilamellar vesicles assessed as calcein leakage at 6 uM after 15 mins by fluorescence assay relative to control
Lipid bilayer [4] = assay: Induction of membrane permeabilization in calcein loaded PG/CL/PE large unilamellar vesicles assessed as calcein leakage at 3 uM after 10 mins by fluorescence assay relative to control
Lipid bilayer [5] = assay: Induction of membrane permeabilization in calcein loaded PG/CL large unilamellar vesicles assessed as calcein leakage at 3 uM after 10 mins by fluorescence assay relative to control
Escherichia coli [6] = assay: Antimicrobial activity against Escherichia coli AS 1.349 assessed as induction of outer membrane permeabilization by measuring NPN uptake by fluorescence assay; type: functional, organism-based
Staphylococcus aureus [7] = assay: Antimicrobial activity against Staphylococcus aureus AS 1.72 assessed as induction of outer membrane permeabilization by measuring NPN uptake by fluorescence assay; type: functional, organism-based
Escherichia coli [8] = assay: Antimicrobial activity against Escherichia coli AS 1.349 assessed as induction of bacterial cytoplasmic membrane depolarization at 2 times MIC after 6 mins by diSC3-5 dye-based fluorescence assay; type: functional, organism-based
Staphylococcus aureus [9] = assay: Antimicrobial activity against Staphylococcus aureus AS 1.72 assessed as induction of bacterial cytoplasmic membrane depolarization at 2 times MIC after 5 mins by diSC3-5 dye-based fluorescence assay; type: functional, organism-based
[10] = Hemolytic activity against human erythrocytes after 1 hr; type: ADME, cell-based, Erythrocyte
MCF7 = assay: Cytotoxicity against human MCF7 cells assessed as reduction in cell viability after 1 hr by MTT assay; type: functional, cell-based; conditions: MCF7, 1 h
A-375 = assay: Cytotoxicity against human A375 cells assessed as reduction in cell viability after 1 hr by MTT assay; type: functional, cell-based; conditions: A-375, 1 h
HeLa = assay: Cytotoxicity against human HeLa cells assessed as reduction in cell viability after 1 hr by MTT assay; type: functional, cell-based
Enterococcus faecalis = assay: Antimicrobial activity against Enterococcus faecalis CGMCC 1.595 after 18 hrs by micro dilution method; type: functional; conditions: CGMCC 1.595, 18 h
Enterococcus faecium = assay: Antimicrobial activity against Enterococcus faecium CGMCC 1.2334 after 18 hrs by micro dilution method; type: functional; conditions: CGMCC 1.2334, 18 h
Lactococcus lactis = assay: Antimicrobial activity against Streptococcus lactis AS 1.1690 after 18 hrs by micro dilution method; type: functional; conditions: AS 1.1690, 18 h
Bacillus cereus = assay: Antimicrobial activity against Bacillus cereus AS 1.126 after 18 hrs by micro dilution method; type: functional; conditions: AS 1.126, 18 h
Staphylococcus aureus [11] = assay: Antimicrobial activity against Staphylococcus aureus AS 1.72 after 18 hrs by micro dilution method; type: functional; conditions: AS 1.72, 18 h
Pseudomonas aeruginosa = assay: Antimicrobial activity against Pseudomonas aeruginosa CGMCC 1.860 after 18 hrs by micro dilution method; type: functional; conditions: CGMCC 1.860, 18 h
Escherichia coli [12] = assay: Antimicrobial activity against Escherichia coli AS 1.349 after 18 hrs by micro dilution method; type: functional; conditions: AS 1.349, 18 h
Lipid bilayer [13] = assay: Induction of membrane permeabilization in calcein loaded LPS/PC/PG large unilamellar vesicles assessed as calcein leakage at 50 uM after 15 mins by fluorescence assay relative to control
Lipid bilayer [14] = assay: Induction of membrane permeabilization in calcein loaded PC/cholesterol large unilamellar vesicles assessed as calcein leakage at 50 uM after 10 mins by fluorescence assay relative to control
Lipid bilayer [15] = assay: Induction of membrane permeabilization in PC/cholesterol large unilamellar vesicles assessed as blue shift by Tryptophan fluorescence spectroscopy
Lipid bilayer [16] = assay: Induction of membrane permeabilization in PG/CL/PE large unilamellar vesicles assessed as blue shift at compound to lipid ratio of 10 by Tryptophan fluorescence spectroscopy
Lipid bilayer [17] = assay: Induction of membrane permeabilization in PG/CL large unilamellar vesicles assessed as blue shift at compound to lipid ratio of 60 by Tryptophan fluorescence spectroscopy
U-937 [18] = assay: Antiinflammatory activity in human U937 cells assessed as inhibition of LPS-induced TNF-alpha production after 24 hrs by ELISA; type: functional, cell-based
U-937 [19] = assay: Antiinflammatory activity in human U937 cells assessed as inhibition of LPS-induced IL-6 production after 24 hrs by ELISA; type: functional, cell-based
U-937 [20] = assay: Antiinflammatory activity in human U937 cells assessed as inhibition of LPS-induced TNF-alpha production at 12.6 uM after 24 hrs by ELISA relative to control; type: functional; conditions: U-937, 24 h
U-937 [21] = assay: Antiinflammatory activity in human U937 cells assessed as inhibition of LPS-induced TNF-alpha production at 6.25 uM after 24 hrs by ELISA relative to control; type: functional; conditions: U-937, 24 h
U-937 [22] = assay: Antiinflammatory activity in human U937 cells assessed as inhibition of LPS-induced TNF-alpha production at 3.13 uM after 24 hrs by ELISA relative to control; type: functional; conditions: U-937, 24 h
U-937 [23] = assay: Antiinflammatory activity in human U937 cells assessed as inhibition of LPS-induced IL-6 production at 12.6 uM after 24 hrs by ELISA relative to control; type: functional; conditions: U-937, 24 h
U-937 [24] = assay: Antiinflammatory activity in human U937 cells assessed as inhibition of LPS-induced IL-6 production at 6.25 uM after 24 hrs by ELISA relative to control; type: functional; conditions: U-937, 24 h
U-937 [25] = assay: Antiinflammatory activity in human U937 cells assessed as inhibition of LPS-induced IL-6 production at 3.13 uM after 24 hrs by ELISA relative to control; type: functional; conditions: U-937, 24 h
[26] = Cytotoxicity against human U937 cells assessed as cell viability at 3.13 to 12.6 uM after 1 hr by MTT assay relative to control; type: cell-based, U-937; conditions: read-out: Activity
Lipopolysaccharide (LPS) [27] = assay: Binding affinity to Escherichia coli 0111:B4 LPS assessed as equilibrium association constant by ITC method
Lipopolysaccharide (LPS) [28] = assay: Binding affinity to Escherichia coli 0111:B4 LPS by ITC method
Lipopolysaccharide (LPS) [29] = assay: Induction of LPS micelles disaggergation assessed as abundant particle size formation at 2 uM by DLS method
[30] = Self-assembly property assessed as diameter of monodispersed micelles at 1 mg/ml at pH 7 by TEM analysis; type: physicochemical
[31] = Self-assembly property assessed as diameter of monodispersed micelles at 1 mg/ml at pH 7 readjusted from pH 2 by TEM analysis; type: physicochemical
Escherichia coli [32] = assay: Antimicrobial activity against Escherichia coli AS 1.349 assessed as induction of bacterial cytoplasmic membrane depolarization at 2 times MIC after 5 mins by diSC3-5 dye-based fluorescence assay; type: functional, organism-based
Staphylococcus aureus [33] = assay: Antimicrobial activity against Staphylococcus aureus AS 1.72 assessed as induction of bacterial cytoplasmic membrane depolarization at 2 times MIC after 4 mins by diSC3-5 dye-based fluorescence assay; type: functional, organism-based
Lipopolysaccharide (LPS) [34] = assay: Induction of LPS micelles disaggergation assessed as small particle distribution at 2 uM by DLS method

| SMILES | Activity (Lipid bilayer [1]) | Activity (Lipid bilayer [2]) [%] | Activity (Lipid bilayer [3]) [%] | Activity (Lipid bilayer [4]) [%] | Activity (Lipid bilayer [5]) [%] | Activity (Escherichia coli [6]) | Activity (Staphylococcus aureus [7]) | HC50 at 1 h [10] [µM] | IC50 (MCF7) [µM] | IC50 (A-375) [µM] | IC50 (HeLa) [µM] | MIC (Enterococcus faecalis) [µM] | MIC (Enterococcus faecium) [µM] | MIC (Lactococcus lactis) [µM] | MIC (Bacillus cereus) [µM] | MIC (Staphylococcus aureus [11]) [µM] | MIC (Pseudomonas aeruginosa) [µM] | MIC (Escherichia coli [12]) [µM] | Activity (Lipid bilayer [13]) [%] | Activity (Lipid bilayer [14]) [%] | other results |
| --- | --- | --- | --- | --- | --- | --- | --- | --- | --- | --- | --- | --- | --- | --- | --- | --- | --- | --- | --- | --- | --- |
| CCCCCCCCCCCC(=O)N[C@@H](CO)C(=O)N[C@@H](CCCCN)C(=O)N[C@H](C(=O)N[C@@H](Cc1c[nH]c2ccccc12)C(=O)N[C@@H](CCCNC(=N)N)C(=O)N[C@@H](Cc1cnc[nH]1)C(=O)N[C@@H](Cc1c[nH]c2ccccc12)C(=O)N[C@@H](CCCNC(=N)N)C(=O)N[C@@H](CCCNC(=N)N)C(=O)N[C@@H](Cc1ccccc1)C(=O)N[C@@H](Cc1c[nH]c2ccccc12)C(=O)N[C@@H](Cc1cnc[nH]1)C(=O)N[C@@H](CCCNC(=N)N)C(=O)N[C@@H](C)C(=O)N[C@@H](Cc1cnc[nH]1)C(=O)N[C@@H](CCCNC(=N)N)C(=O)N[C@@H](CCCCN)C(=O)N[C@@H](CC(C)C)C(=O)O)C(C)C (Lauroyl-SKVWRHWRRFWHRAHRKL-OH) | Dose-dependent effect | 54 | 81 | 42 | 64 | Dose-dependent effect | Dose-dependent effect | > 500 | 25.8 | 21.2 | 20.4 | 3.13 (≈ 8.53 µg/mL) | 1.56 (≈ 4.25 µg/mL) | 3.13 (≈ 8.53 µg/mL) | 3.13 (≈ 8.53 µg/mL) | 3.13 (≈ 8.53 µg/mL) | 1.56 (≈ 4.25 µg/mL) | 6.25 (≈ 17 µg/mL) | 58 | 20 | Activity (Escherichia coli [8]): Active; Activity (Staphylococcus aureus [9]): Active; Activity (Lipid bilayer [15]): inactive; Activity (Lipid bilayer [16]): 16 nm; Activity (Lipid bilayer [17]): 20 nm; inhibition (U-937 [18]): Dose-dependent effect; inhibition (U-937 [19]): Dose-dependent effect; inhibition at 12.6 µM (U-937 [20]): 31%; inhibition at 6.25 µM (U-937 [21]): 27%; inhibition at 3.13 µM (U-937 [22]): 26%; inhibition at 12.6 µM (U-937 [23]): 33%; inhibition at 6.25 µM (U-937 [24]): 29%; inhibition at 3.13 µM (U-937 [25]): 17%; viability at 1 h, up to 12.6 µM [26]: 80%; Ka (Lipopolysaccharide (LPS) [27]): 136 mM⁻¹; Kd (Lipopolysaccharide (LPS) [28]): 7.35 µM; Activity (Lipopolysaccharide (LPS) [29]): 350 nm; Activity [30]: 66 nm; Activity [31]: 108 nm |
| CCCCCCCC(=O)N[C@@H](CO)C(=O)N[C@@H](CCCCN)C(=O)N[C@H](C(=O)N[C@@H](Cc1c[nH]c2ccccc12)C(=O)N[C@@H](CCCNC(=N)N)C(=O)N[C@@H](Cc1cnc[nH]1)C(=O)N[C@@H](Cc1c[nH]c2ccccc12)C(=O)N[C@@H](CCCNC(=N)N)C(=O)N[C@@H](CCCNC(=N)N)C(=O)N[C@@H](Cc1ccccc1)C(=O)N[C@@H](Cc1c[nH]c2ccccc12)C(=O)N[C@@H](Cc1cnc[nH]1)C(=O)N[C@@H](CCCNC(=N)N)C(=O)N[C@@H](C)C(=O)N[C@@H](Cc1cnc[nH]1)C(=O)N[C@@H](CCCNC(=N)N)C(=O)N[C@@H](CCCCN)C(=O)N[C@@H](CC(C)C)C(=O)O)C(C)C (Octanoyl-SKVWRHWRRFWHRAHRKL-OH) | Dose-dependent effect | 92 | 95 | 66 | 88 | Dose-dependent effect | Dose-dependent effect | > 500 | 34.9 | 51 | 23.9 | 1.56 (≈ 4.16 µg/mL) | 1.56 (≈ 4.16 µg/mL) | 1.56 (≈ 4.16 µg/mL) | 1.56 (≈ 4.16 µg/mL) | 3.13 (≈ 8.35 µg/mL) | 1.56 (≈ 4.16 µg/mL) | 3.13 (≈ 8.35 µg/mL) | 73 | 20 | Activity (Escherichia coli [32]): Active; Activity (Staphylococcus aureus [33]): Active; Activity (Lipid bilayer [15]): inactive; Activity (Lipid bilayer [16]): 16 nm; Activity (Lipid bilayer [17]): 24 nm; inhibition (U-937 [18]): Dose-dependent effect; inhibition (U-937 [19]): Dose-dependent effect; inhibition at 12.6 µM (U-937 [20]): 30%; inhibition at 6.25 µM (U-937 [21]): 28%; inhibition at 3.13 µM (U-937 [22]): 24%; inhibition at 12.6 µM (U-937 [23]): 24%; inhibition at 6.25 µM (U-937 [24]): 8%; inhibition at 3.13 µM (U-937 [25]): 7%; viability at 1 h, up to 12.6 µM [26]: 80%; Ka (Lipopolysaccharide (LPS) [27]): 92.3 mM⁻¹; Kd (Lipopolysaccharide (LPS) [28]): 10.8 µM; Activity (Lipopolysaccharide (LPS) [29]): 68 nm; Activity (Lipopolysaccharide (LPS) [34]): 400 nm; Activity [30]: 80 nm; Activity [31]: 7 nm |
